Laboratory results: patent publication US20260166031A1, “Methods of Treating Lipedema and Lymphatic Disease of the Subcutaneous Tissue” (Celltaxis, LLC, priority 2023, published 2026)
In brackets after ≈: the same amount, converted by molar mass. Entries after “also recorded” stand apart in the source; their conditions may differ. Where two headings read alike, the source gives them in different places.

How the values were obtained:
[1] = tested on: upper limb lymphedema patient; test: HEAL Phase 2 trial case report, dermal ultrasound of forearm; assay type: in vivo, human; conditions: Stage II lymphedema subject
Source text: We present the early ultrasonographic responses of a participant who has completed 3 months of a total 6-month exposure. The primary endpoint for this trial involves quantitative analysis of dermal ultrasound skin changes.
These preliminary results lend great promise to the HEAL trial.

[2] = tested on: affected limb of lymphedema patients; test: Expanded access program, bioimpedance of affected limb; assay type: in vivo, human; conditions: 6 months vs baseline; p<0.01; higher bioimpedance = lower water content
Source text: Bioimpedance is a measure of water content, and a higher bioimpedance corresponds to a lower water content.
FIGS. 5A, 5B and 5C are graphs presenting the same data as change in bioimpedance (as compared to baseline) over time.

neutrophil swarming = test: Neutrophil swarming in vitro in response to factors in human CF sputum; conditions: acebilustat 48 ng/mL, factors present in human CF sputum
lymphedema patients [3] = test: Expanded access program, dermal ultrasound; assay type: in vivo, human
[4] = tested on: affected limb of lymphedema patients; test: Expanded access program, limb volume; assay type: in vivo, human; conditions: 6 months; mean for 6 patients; p<0.03
Source text: At 6 months, a 6.7% reduction in limb volume was observed (mean for 6 patients; p<0.03).

adult patients with CF = conditions: 48 weeks of treatment; Phase II adult CF patients; cited from earlier work
[5] = tested on: LTB4 production in human whole blood; test: Human whole blood ex vivo LTB4 production; assay type: cell-based; conditions: human whole blood tested ex vivo; read-out: approximate IC50, LTB4 production
Protocol: The hydrolase-homogeneous time resolved fluorescence assay is a two-step assay that measures the hydrolysis of LTA4 to LTB4 by analyzing the amount of LTB4 produced. The first step involves the enzymatic conversion of LTA4 to LTB4 and the second step involves the quantification of the LTB4 formed with a homogeneous time resolved fluorescence assay. […] In the whole blood assay, the inhibitor compounds are tested for their ability to inhibit LTB4 release upon stimulation with calcium ionophore and the LTB4 levels in supernatants are measured by ELISA.

LTB4 production = test: Pharmacodynamic studies in humans, LTB4 production/inhibition; assay type: in vivo, human
[6] = tested on: affected (lymphedematous) limb of lymphedema patients; test: Expanded access program, skin thickness of affected limb by caliper; assay type: in vivo, human; conditions: p<0.0001
Protocol: Skin thickness was measured by caliper.
At 6 months, a 43% reduction in skin thickness was observed (mean for 10 patients; p<0.0001).

[7] = tested on: sputum white blood cells and neutrophils of CF patients; test: Sputum cell counts in CF patients
lymphedema patients [8] = test: Expanded access program, LymVAS quality of life; assay type: in vivo, human; conditions: as early as 3 months, maintained at 6 months; 11 EAP patients
Protocol: Quality of life indicators were also evaluated in the 11 EAP patients using LymVAS, a tool to interrogate lymphedema patient experience and is based on experience and practice from prior lymphedema trials. LymVAS uses a sliding visual analog scale, wherein patients move the slider along a line to indicate the degree of response to a question. LymVAS has two segments: 1.

[9] = biological target: T1, LTA4H aminopeptidase activity (Homo sapiens, UniProt P09960)
T1 sequence (P09960 1-611): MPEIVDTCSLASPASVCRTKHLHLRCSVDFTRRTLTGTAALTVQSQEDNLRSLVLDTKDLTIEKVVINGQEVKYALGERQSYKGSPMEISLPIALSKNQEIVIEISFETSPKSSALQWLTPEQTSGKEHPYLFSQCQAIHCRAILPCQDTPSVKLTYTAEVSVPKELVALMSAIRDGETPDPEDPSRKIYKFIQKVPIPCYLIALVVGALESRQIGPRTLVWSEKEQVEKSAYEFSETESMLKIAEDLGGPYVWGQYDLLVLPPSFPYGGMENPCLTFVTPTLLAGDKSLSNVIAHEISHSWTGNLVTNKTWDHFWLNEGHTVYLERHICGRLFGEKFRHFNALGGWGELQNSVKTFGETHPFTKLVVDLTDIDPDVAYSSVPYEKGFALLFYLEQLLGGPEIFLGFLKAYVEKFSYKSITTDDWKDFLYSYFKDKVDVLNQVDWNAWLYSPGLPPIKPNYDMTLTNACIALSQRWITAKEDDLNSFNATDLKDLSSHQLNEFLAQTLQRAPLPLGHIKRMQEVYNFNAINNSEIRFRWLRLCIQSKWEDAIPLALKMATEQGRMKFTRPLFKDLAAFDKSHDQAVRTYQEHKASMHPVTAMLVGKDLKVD

LTA4H = biological target: T2, LTA4H (Homo sapiens, UniProt P09960); conditions: cited from earlier work
T2 sequence (P09960 1-611): T1 sequence (P09960 1-611)

[10] = biological target: T3, LTA4H epoxide hydrolase activity (Homo sapiens, UniProt P09960); conditions: Table 3; read-out: Epoxide Hydrolase IC50 ± SEM; cited from earlier work
T3 sequence (P09960 1-611): T1 sequence (P09960 1-611)

[11] = 3 months of treatment vs baseline
[12] = 3 months of treatment vs baseline, listed as Acebilustat
[13] = patient with right leg lymphedema, at 6 months
[14] = Table 3; read-out: Aminopeptidase IC50 ± SEM; cited from earlier work
[15] = Table 2; read-out: Aminopeptidase IC50 ± SEM; cited from earlier work

## O=C(O)c1ccc(CN2C[C@@H]3C[C@H]2CN3Cc2ccc(Oc3ccc(-c4ncco4)cc3)cc2)cc1 [acebilustat, 4-{[(1S,4S)-5-({4-[4-oxazol-2-yl-phenoxy]phenyl}methyl)-2,5-diazabicyclo[2.2.1]heptan-2-yl]methyl}benzoic acid]
[1]; 3 months of treatment
  demarcation of dermo-epidermal junction and subcutaneous fascial bands: enhanced demarcation
[1]; [11]
  dermal echogenicity by ultrasound: reduced echogenicity
  dermal thickness by ultrasound: reduced dermal thickness
  subcutaneous tissue echogenicity: decreased
[1]; [12]
  dermal thickness by ultrasound: reduced
  subcutaneous tissue echogenicity: reduced
[2]
  bioimpedance (water content) of affected limb: significantly lower water content; also recorded: significantly higher bioimpedance
Neutrophil swarming
  reduction of neutrophil swarming: 80%
Lymphedema patients [3]; different patient (FIG. 7), after 6 months of treatment
  reduction in subcutaneous thickness: 15.2%
Lymphedema patients [3]; [13]
  reduction of dermal thickness: 3.7%
  reduction of subdermal thickness: over 20.2%
  reduction of total thickness: 17.6%
[4]
  reduction in limb volume: 6.7%
Adult patients with CF
  rate of pulmonary exacerbations: showed promise in reducing the rate of pulmonary exacerbations
  risk of infection: no evidence of increased risk of infection
[5]
  IC50: ~0.0308 µg/mL (≈ 0.064 µM)
LTB4 production; 50 mg dose, human pharmacodynamic studies
  inhibition at 50 mg: ≥ 63%
LTB4 production; 100 mg dose, human pharmacodynamic studies
  inhibition at 100 mg: ≥ 74%
LTB4 production; 150 mg dose, human pharmacodynamic studies
  inhibition at 150 mg: ≥ 82%
LTB4 production; 200 mg, human pharmacodynamic studies
  LTB4 inhibition: at least 85%
LTB4 production; Homo sapiens, pharmacodynamic studies in humans, read-out: estimated in vivo EC50, inhibition of LTB4 production
  EC50: 0.093 µg/mL (≈ 0.193 µM)
[6]; 3 months after acebilustat treatment vs baseline, caliper
  skin thickness of affected limb: dramatically reduced; also recorded: significant decrease
[6]; 6 months vs baseline, mean for 10 patients
  reduction in skin thickness: 43%
[7]; 100 mg acebilustat group
  decrease of sputum white blood cells from Baseline: 60%
[7]; 100 mg group
  decrease of sputum neutrophils: 65%
[7]; all treated patients (doses of 50 to 100 mg)
  decrease of sputum neutrophils: 34%
[7]; all treated subjects (doses of 50 or 100 mg)
  decrease of sputum white blood cells from Baseline: 31%
Lymphedema patients [8]
  LymVAS Total Change Score: significant improvement
  LymVAS quality of life Total Status Score: significant improvement

## O=c1c(-c2ccccc2)coc2cc(O)ccc12 [Cmpd 13]
[9]; [14]
  IC50: > 100 µM

## CCOc1cc(O)cc(CCc2ccc(O)cc2)c1 [Cmpd 7]
[9]; [15]
  IC50: > 100 µM

## O=c1c(-c2ccc(O)cc2)coc2cc(O)ccc12 [Cmpd 11]
[9]; read-out: Aminopeptidase IC50 ± SEM; Table 3; cited from earlier work
  IC50: > 100 µM

## COc1cc(O)cc(CCc2ccc(O)cc2)c1 [Cmpd 6]
[9]; [15]
  IC50: > 100 µM

## O=C(Cc1ccc(O)cc1)c1ccc(O)cc1O [Cmpd 10]
[9]; [14]
  IC50: > 100 µM

## CC(C)C[C@H](NC(=O)[C@@H](O)[C@H](N)Cc1ccccc1)C(=O)O [Ubenimex]
LTA4H
  potency at inhibiting LTB4 generation versus PGP degradation (selectivity class): non-selective LTA4H inhibitor

## O=c1c(-c2ccc(O)cc2)coc2c(O)c(O)ccc12 [Cmpd 12]
[10]
  IC50: 7.3 ± 0.8 µM

## COc1cc(O)cc(CCc2ccccc2O)c1 [Cmpd 9]
[9]; [15]
  IC50: > 100 µM

## COc1cc(O)cc(CCc2cccc(O)c2)c1 [Cmpd 8]
[9]; [15]
  IC50: > 100 µM

## CC(=O)Oc1ccc(/C=C/c2cc(OC(C)=O)cc(OC(C)=O)c2)cc1 [Cmpd 4]
[9]; Table 1; read-out: Aminopeptidase IC50 ± SEM; cited from earlier work
  IC50: > 100 µM
